Measurements published in patent publication US20160264593A1 (priority 2013, published 2016).
Like-named read-outs stand apart in the source and are kept apart here.

Experiment: Pharmacokinetic study of 153 (and metabolite endothal) in SD rats, iv and po; plasma, liver, brain
Format: in vivo
Settings: for MRT last: read-out: MRT (0-t); for half-life: read-out: T1/2 (converted); for Tmax: read-out: Tmax
Experimental: The blood, liver and brain tissue samples were collected at predetermined times from rats. […] Compound were diluted shortly before use in 4% sodium bicarbonate for sterile injection (this is the standard pediatric solution of NaHCO3 with a pH of about 8.5).
Compound 153 was freshly prepared by diluting the drugs shortly before use in 4% sodium bicarbonate for sterile injection (this is the standard pediatric solution of NaHCO3 with a pH of about 8.5). The final concentrations of 153 solutions were 0.25 mg/mL. The 153 solutions were administered via iv or po route at dose volume of 5 ml/kg according to the latest body weight. Compound 157 was freshly prepared by diluting the drugs shortly before use in 4% sodium bicarbonate for sterile injection (this is the standard pediatric solution of NaHCO3 with a pH of about 8.5). The final concentrations of […] solutions were 0.3 mg/mL. The 157 solutions were administered via iv or po route at dose volume of 5 ml/kg according to the latest body weight.
Twelve (12) female SD rats per group were dosed by iv with 153 or 157. The rats were fasted overnight prior to dosing, with free access to water. Foods were withheld for 2 hours post-dose. Blood, liver and brain tissue samples in two animals each group were collected at each time point, within 10% of the scheduled time for each time point. Two extra animals were used for analytic method development.
Blood (>0.3 mL) were collected via aorta abdominalis in anaesthetic animals into tubes containing heparin at 15 min, 1, 2, 6, 10 and 24 hours after iv administration. Liver and brain tissues were collected immediately after animal death. The liver and brain tissues were excised and rinsed with cold saline to avoid blood residual. Upon collection, each sample was placed on ice and the blood samples were subsequently centrifuged (4° C., 11000 rpm, 5 min) to separate plasma. The obtained plasma, liver and brain tissue samples were stored at −70° C. until LC-MS/MS analysis.
Two (2) female SD rats per group were dosed by po with 153 or 157. The rats were fasted overnight prior to dosing, with free access to water. Foods were withheld for 2 hours post-dose. Blood samples (>0.3 mL) were collected via aorta abdominalis in anaesthetic animals into tubes containing heparin at 30 min, 1, 2, 6, 10 and 24 hours after po administration.
To each sample, 20 μL IS-D (for blank samples, 20 μL acetonitrile:water (1:1) was added) and 300 μl acetonitrile was added. The sample mixture was vortexed for approximately 3 min. After centrifugation at 10000 rpm for 5 min at 4° C., 100 μL of the upper layer was transferred to a new tube and added 200 μL 0.4% formic acid in water (pH 6.0). The mixture was vortexed for approximately 3 min before injected onto the LC/MS/MS system for analysis.
On the day of the assay, the frozen liver and brain samples were thawed unassisted at room temperature. An about 200 mg weighed sample of each thawed tissue was placed into a plastic tube with water (0.6 mL) to facilitate homogenization. Tissue processing was conducted using a homogenizer for approximately 1 min, 200 μl homogenate was transferred into a fresh Eppendorf tube. To each tube, 50 μL IS-D was added and mixed. Then 600 μl acetonitrile was added and the sample mixture was vortexed for approximately 3 min. After centrifugation at 10000 rpm for 5 min at 4° C., 400 μL of the upper layer was transferred to a new tube and evaporate the supernatant to dryness at 35° C. Reconstitute the residue with 200 μL of 0.4% formic acid in water (pH6.0), and vortex for 3 min, submit for LC-MS/MS analysis.
Frozen unknown plasma samples were completely thawed at room temperature and vortexed thoroughly. With a pipette, 50 μL of plasma was transferred into a 2.0 mL Eppendorf tube. 50 μL of 0.1N HCl and 800 μL ethyl acetate were added into each sample. The sample mixture was vortexed for approximately 3 min.

[1] = female, SD, rat, in vivo, iv, 1.25 mg/kg, iv 1.25 mg/kg, Mean, read-out: 153 liver concentration
[2] = female, SD, rat, in vivo, iv, 1.25 mg/kg, iv 1.25 mg/kg, Mean, read-out: 153 plasma concentration
[3] = female, SD, rat, in vivo, iv, 1.25 mg/kg, iv 1.25 mg/kg, Rat 1, read-out: 153 brain concentration
[4] = female, SD, rat, in vivo, iv, 1.25 mg/kg, iv 1.25 mg/kg, Rat 1, read-out: 153 liver concentration
[5] = female, SD, rat, in vivo, iv, 1.25 mg/kg, iv 1.25 mg/kg, Rat 1, read-out: 153 plasma concentration
[6] = female, SD, rat, in vivo, iv, 1.25 mg/kg, iv 1.25 mg/kg, Rat 2, read-out: 153 brain concentration
[7] = female, SD, rat, in vivo, iv, 1.25 mg/kg, iv 1.25 mg/kg, Rat 2, read-out: 153 liver concentration
[8] = female, SD, rat, in vivo, iv, 1.25 mg/kg, iv 1.25 mg/kg, Rat 2, read-out: 153 plasma concentration
[9] = female, SD, rat, in vivo, po, 1.25 mg/kg, 153 in plasma, PO 1.25 mg/kg, Mean
[10] = female, SD, rat, in vivo, po, 1.25 mg/kg, 153 in plasma, PO 1.25 mg/kg, rat 1
[11] = female, SD, rat, in vivo, po, 1.25 mg/kg, 153 in plasma, PO 1.25 mg/kg, rat 2
[12] = female, SD, rat, in vivo, po, 1.25 mg/kg, PO per title, 1.25 mg/kg, Mean, read-out: 153 liver concentration
[13] = female, SD, rat, in vivo, po, 1.25 mg/kg, PO per title, 1.25 mg/kg, Rat 2, read-out: 153 liver concentration
[14] = female, Sprague-Dawley (SD), rat, in vivo, iv, 1.25 mg/kg, Brain, 1.25 mg/kg IV, Mean
[15] = female, Sprague-Dawley (SD), rat, in vivo, iv, 1.25 mg/kg, Brain, 1.25 mg/kg IV, rat 1
[16] = female, Sprague-Dawley (SD), rat, in vivo, iv, 1.25 mg/kg, Brain, 1.25 mg/kg IV, rat 2
[17] = female, Sprague-Dawley (SD), rat, in vivo, iv, 1.25 mg/kg, Liver, 1.25 mg/kg IV, Mean
[18] = female, Sprague-Dawley, rat, in vivo, po, 1.25 mg/kg, PO per title, 1.25 mg/kg, Rat 1, read-out: 153 liver concentration

Which results are given for `CCCOC(=O)C1C2CCC(O2)C1C(=O)N1CCN(C)CC1` (stereo not shown) [Compound 153, 3-(4-Methylpiperazine-1-carbonyl)-7-oxa-bicyclo[2,2,1]heptane-2-carboxylic acid propyl ester]?
concentration at 1 h [1]: 126 ng/g; concentration at 1 h [2]: 0.0547 µg/mL; concentration at 1 h [3]: 13.9 ng/g; concentration at 1 h [4]: 131 ng/g; concentration at 1 h [5]: 0.058 µg/mL; concentration at 1 h [6]: 14.3 ng/g; concentration at 1 h [7]: 121 ng/g; concentration at 1 h [8]: 0.0514 µg/mL; concentration at 2 h (female, SD, rat, in vivo, iv, 1.25 mg/kg, iv 1.25 mg/kg, Mean, read-out: 153 brain concentration): 4.4 ng/g; concentration at 2 h [1]: 41.6 ng/g; concentration at 2 h [2]: 0.0139 µg/mL; concentration at 2 h [3]: 4.05 ng/g; concentration at 2 h [4]: 42 ng/g; concentration at 2 h [5]: 0.0148 µg/mL; concentration at 2 h [6]: 4.75 ng/g; concentration at 2 h [7]: 41.2 ng/g; concentration at 2 h [8]: 0.013 µg/mL; concentration at 6 h (female, SD, rat, in vivo, iv, 1.25 mg/kg, iv 1.25 mg/kg, 6 hr, Mean): 0.00103 µg/mL; concentration at 6 h (female, SD, rat, in vivo, iv, 1.25 mg/kg, iv 1.25 mg/kg, 6 hr, Rat 1): 0.00104 µg/mL; concentration at 6 h (female, SD, rat, in vivo, iv, 1.25 mg/kg, iv 1.25 mg/kg, 6 hr, Rat 2): 0.00102 µg/mL; concentration at 10 h (female, SD, rat, in vivo, iv, 1.25 mg/kg, iv 1.25 mg/kg, 10 hr, Rat 2, abnormal, not included in the calculation): 0.00942 µg/mL; MRT last [9]: 60.6 min; half-life [9]: 20.6 min; AUC(0-inf) [10]: 0.163 µg·h/mL; AUC (female, SD, rat, in vivo, po, 1.25 mg/kg, 153 in plasma, PO 1.25 mg/kg, rat 1, read-out: AUC): 0.163 µg·h/mL; Cmax (female, SD, rat, in vivo, po, 1.25 mg/kg, 153 in plasma, PO 1.25 mg/kg, rat 1, read-out: Cmax): 0.249 µg/mL; MRT last [10]: 59.2 min; half-life [10]: 19.8 min; AUC(0-inf) [11]: 0.164 µg·h/mL; AUC (female, SD, rat, in vivo, po, 1.25 mg/kg, 153 in plasma, PO 1.25 mg/kg, rat 2, read-out: AUC): 0.164 µg·h/mL; Cmax (female, SD, rat, in vivo, po, 1.25 mg/kg, 153 in plasma, PO 1.25 mg/kg, rat 2, read-out: Cmax): 0.229 µg/mL; MRT last [11]: 62.4 min; half-life [11]: 21.3 min; AUC (female, SD, rat, in vivo, po, 1.25 mg/kg, 153 po 1.25 mg/kg, read-out: AUC of 153 in plasma): 0.164 µg·h/mL; Cmax (female, SD, rat, in vivo, po, 1.25 mg/kg, 153 po 1.25 mg/kg, read-out: Cmax of 153 in plasma): 0.239 µg/mL; concentration at 0.25 h [12]: 762 ng/g; concentration at 0.25 h [13]: 652 ng/g; concentration at 1 h [12]: 126 ng/g; concentration at 1 h (female, SD, rat, in vivo, po, 1.25 mg/kg, PO per title, 1.25 mg/kg, Rat 1, read-out: 153 liver concentration): 131 ng/g; concentration at 1 h [13]: 121 ng/g; AUC(0-t) (female, SD, rat, in vivo, 153 iv 1.25 mg/kg, read-out: AUClast of 153 in plasma): 0.295 µg·h/mL; bioavailability (female, SD, rat, in vivo, 153 po vs iv 1.25 mg/kg, read-out: BA (bioavailability) of 153): 55.4%; Cmax (female, Sprague-Dawley (SD), rat, in vivo, iv, 1.25 mg/kg, Brain, 1.25 mg/kg IV, Mean, read-out: Cmax): 42.7 ng/g; MRT last [14]: 58.3 min; half-life [14]: 35.8 min; Cmax (female, Sprague-Dawley (SD), rat, in vivo, iv, 1.25 mg/kg, Brain, 1.25 mg/kg IV, rat 1, read-out: Cmax): 45 ng/g; MRT last [15]: 56 min; half-life [15]: 33.7 min; Cmax (female, Sprague-Dawley (SD), rat, in vivo, iv, 1.25 mg/kg, Brain, 1.25 mg/kg IV, rat 2, read-out: Cmax): 40.3 ng/g; MRT last [16]: 60.6 min; half-life [16]: 37.7 min; Cmax (female, Sprague-Dawley (SD), rat, in vivo, iv, 1.25 mg/kg, Liver, 1.25 mg/kg IV, Mean, read-out: Cmax): 762 ng/g; MRT last [17]: 47.1 min; half-life [17]: 37.6 min; half-life (female, Sprague-Dawley (SD), rat, in vivo, iv, 1.25 mg/kg, Liver, 1.25 mg/kg IV, rat 2): 38.6 min; AUC(0-inf) (female, Sprague-Dawley (SD), rat, in vivo, po, 1.25 mg/kg, 153 in plasma, PO 1.25 mg/kg, Mean): 0.164 µg·h/mL; AUC (female, Sprague-Dawley (SD), rat, in vivo, po, 1.25 mg/kg, 153 in plasma, PO 1.25 mg/kg, Mean, read-out: AUC): 0.164 µg·h/mL; Cmax (female, Sprague-Dawley (SD), rat, in vivo, po, 1.25 mg/kg, 153 in plasma, PO 1.25 mg/kg, Mean, read-out: Cmax): 0.239 µg/mL; Tmax (female, Sprague-Dawley (SD), rat, in vivo, 153 in plasma, PO 1.25 mg/kg, Mean): 30 min; Tmax (female, Sprague-Dawley (SD), rat, in vivo, Liver, 1.25 mg/kg IV, Mean): 15 min; concentration at 0.25 h [18]: 872 ng/g; concentration at 2 h (female, Sprague-Dawley, rat, in vivo, po, 1.25 mg/kg, PO per title, 1.25 mg/kg, Mean, read-out: 153 liver concentration): 41.6 ng/g; concentration at 2 h [18]: 42 ng/g; concentration at 2 h (female, Sprague-Dawley, rat, in vivo, po, 1.25 mg/kg, PO per title, 1.25 mg/kg, Rat 2, read-out: 153 liver concentration): 41.2 ng/g; 153 liver concentration (iv 1.25 mg/kg, 6 hr, Rat 1): BLQ; 153 liver concentration (iv 1.25 mg/kg, 6 hr, Rat 2): BLQ; 153 liver concentration (iv 1.25 mg/kg, 10 hr, Rat 1): BLQ
